Reference: patent US12391683B2, “Therapeutic compounds and methods” (Actio Biosciences, Inc., priority 2022, dated 2025)
“And” between values parts separate entries of the source, which are not always exact repeats. Equal values may be shown once.

What was measured:
Hepatocytes [1] = experiment: Hepatocytes predicted clearance, human
[2] = target: recombinant human CYP3A4 enzyme (Homo sapiens, UniProt P08684); experiment: CYP3A4 incubation assay; type: in vitro ADME; set-up: Metabolic Stability in Recombinant Human CYP3A4 + NADPH (% remaining after 25 min): dose or concentration left out as unconfirmed
Sequence of recombinant human CYP3A4 enzyme (P08684 whole entry): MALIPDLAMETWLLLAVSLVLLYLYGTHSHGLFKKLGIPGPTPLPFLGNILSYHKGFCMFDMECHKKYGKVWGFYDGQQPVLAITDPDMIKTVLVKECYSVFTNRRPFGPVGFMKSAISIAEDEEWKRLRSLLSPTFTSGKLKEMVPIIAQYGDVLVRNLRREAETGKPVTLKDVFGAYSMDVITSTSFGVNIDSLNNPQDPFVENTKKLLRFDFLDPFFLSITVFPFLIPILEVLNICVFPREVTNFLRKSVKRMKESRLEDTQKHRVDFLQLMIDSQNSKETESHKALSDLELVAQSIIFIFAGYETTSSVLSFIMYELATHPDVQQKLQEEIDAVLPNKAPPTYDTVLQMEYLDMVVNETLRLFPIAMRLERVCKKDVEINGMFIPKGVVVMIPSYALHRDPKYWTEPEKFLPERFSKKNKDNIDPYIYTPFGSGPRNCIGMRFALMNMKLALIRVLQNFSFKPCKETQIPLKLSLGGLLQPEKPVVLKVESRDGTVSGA
Description: Example 24. CYP3A4 Incubation Assay
Compounds (final concentration […]) were incubated in 100 mM phosphate buffer containing 100 pmol/mL recombinant human CYP3A4 enzyme for 0, 5, 10, 15 and 25 minutes.
Testosterone was used as positive control. Reaction was initiated by the addition of NADPH (final concentration […]) and carried out at 37° C. The reaction was stopped by the addition of 4 volumes of cold acetonitrile (with 100 nM alprazolam, 200 nM labetalol, 200 nM imipramine and 2 μM ketoprofen as internal standards). Samples were centrifuged at 3,220 g for 40 minutes to precipitate protein. 70 μL supernatant was transferred to the analysis plate containing 110 μL of acetonitrile for LC-MS/MS analysis.
The following table indicates the percentage remaining for the indicated examples after incubation with recombinant Human CYP3A4 after 25 minutes under the same conditions as described for Example […].

Hepatocytes [3] = experiment: Hepatocytes predicted clearance, cyno
Human TRPV4 = Human TRPV4 (Homo sapiens, UniProt Q9HBA0); experiment: TRPV4 calcium flux assay (FLIPR, antagonist mode); type: cell-based; set-up: HiBiT (inferred from the expression read-out); host or cells: HEK293T; settings: HEK293T cells transfected with hTRPV4; antagonist mode vs EC80 of TRPV4 agonist; average of at least 3 separate experiments; read-out: Human TRPV4 Ca2+ Assay IC50
Sequence of Human TRPV4 (Q9HBA0 whole entry): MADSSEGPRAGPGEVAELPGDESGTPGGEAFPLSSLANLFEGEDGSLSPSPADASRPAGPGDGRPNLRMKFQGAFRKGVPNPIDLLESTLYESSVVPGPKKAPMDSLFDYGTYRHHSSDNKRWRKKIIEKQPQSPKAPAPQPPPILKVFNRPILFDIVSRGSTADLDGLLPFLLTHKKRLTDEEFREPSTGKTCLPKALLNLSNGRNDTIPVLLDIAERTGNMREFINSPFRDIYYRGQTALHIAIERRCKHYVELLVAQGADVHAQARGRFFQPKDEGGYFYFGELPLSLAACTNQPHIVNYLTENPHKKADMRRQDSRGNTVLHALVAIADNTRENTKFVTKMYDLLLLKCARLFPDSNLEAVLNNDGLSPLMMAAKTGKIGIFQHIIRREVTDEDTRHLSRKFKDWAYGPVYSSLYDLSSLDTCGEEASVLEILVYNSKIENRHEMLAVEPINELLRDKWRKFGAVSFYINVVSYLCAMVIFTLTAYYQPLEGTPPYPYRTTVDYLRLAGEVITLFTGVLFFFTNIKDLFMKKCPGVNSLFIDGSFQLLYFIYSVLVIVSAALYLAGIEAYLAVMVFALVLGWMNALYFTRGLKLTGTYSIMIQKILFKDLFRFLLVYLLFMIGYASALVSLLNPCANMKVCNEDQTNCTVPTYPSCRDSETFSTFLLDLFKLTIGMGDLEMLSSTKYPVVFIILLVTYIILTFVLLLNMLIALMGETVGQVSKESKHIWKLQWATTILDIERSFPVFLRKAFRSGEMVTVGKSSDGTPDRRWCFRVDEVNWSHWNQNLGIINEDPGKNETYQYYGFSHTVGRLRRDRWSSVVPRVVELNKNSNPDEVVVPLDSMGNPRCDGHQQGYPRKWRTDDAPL
Description: Example 23. TRPV4 Calcium Assay Methods
Human embryonic kidney 293T (HEK293T/293T) cells are cultured in complete media (Dulbecco's Modified Eagle Medium (DMEM), containing 10% fetal bovine serum (FBS) and 1× penicillin-streptomycin) in a T-75 tissue culture flask. At 90% confluency, cells are detached using TrypLE™ Express cell dissociation buffer. TrypLE™ Express buffer is neutralized by adding culture media in excess. Cells are gently triturated and counted using trypan blue in a Countess 3 automated cell counter. Cells are transferred to a 50 mL conical tube and spun down at 1000 rotations per minute (RPM) for five minutes in a benchtop centrifuge. Media containing detaching enzyme is aspirated off the pellet, followed by resuspension to the desired concentration of 2×10^6 cells per mL in complete DMEM.
Transfection preparations were scaled using a combination of 6 μg of TRPV4 wild-type or mutant plasmid DNA, 36 μL of Fugene6 transfection reagent, and 1000 μL of OptiMEM media for every 2×10^6 cells needed. The transfection mix is left to incubate for 20 minutes at room temperature. Total seeding mixture (1000 μL 2×10^6 cells, 1000 μL transfection mix previously described, and 1000 μL complete DMEM) for one transfection is combined into a 15 mL conical tube. The cells and transfection plasmid are mixed thoroughly and dispensed into a reservoir. This is plated at 25 μL per well in a black 384, black-well, clear-bottom, tissue-culture treated plate. This yields approximately 16,000 cells per well. Plasmid DNA constructs were designed by Actio Biosciences in conjunction with Genscript, and generated by Genscript, for all hTRPV4 wild-type and hTRPV4 P/LP (ClinVar) mutations (G78W, P82S, T891, P97R, R186Q, R232C, R232P, R237G, R237Q, R237 L, R269C, R269H, R269S, G270V, R271P, F273 L, K276E, E278K, G280S, Y281S, R315G, R315W, R316C, R316H, R316 L, R316S, I331F, D333G, S403T, K403T, K407E, S542P, S542Y, L543R, Y591N, R594C, R594H, R594S, G600E, Y602C, R616Q, F617 L, L618P, V6201, A716S, A716T, L735R, T740I, R775K, W785R, E797D, E797K, P799A, P799R, P799S, P799 L, G800D, K801E, P827H, F471del, N797del). The remaining cells are plated in the same manner, in a 384, white-well, clear-bottom, tissue-culture treated plate for expression and relative cell number determination. Plates are placed in the incubator at 37° C. overnight.
Compounds were brought to 10 mM in DMSO. DMSO concentration was kept constant throughout the dilution of any compound. DMSO negative control and concentration-response curves were nanoliter-spotted via PICO8 automated dispenser at 5× test concentration into a 384w clear polypropylene plate containing 1×HBSS+20 mM HEPES buffer. A predetermined concentration equivalent to the EC80 of TRPV4 agonist on hTRPV4 was prepared at 6× in 1×HBSS+20 mM HEPES and loaded into a separate 384-well v-bottom polypropylene plate.
Approximately 18 hours post-transfection, the cell plates were removed from the incubator and equal volume (25 uL) Calcium 6 dye was gently added. Calcium 6 dye containing probenecid (final 5 mM) was prepared per manufacturer's instructions. Cell plate was returned to the incubator for 1 hour, at 37° C.
FLIPR Penta was programmed to add compound using the following settings • Pipettor Head=384 • Read Mode 1 Excitation Wavelength=470_495 • Read Mode 1 Emission Wavelength=515_575 • Read Mode 1 Exposure=0.1000 • Read Mode 1 Gain=6.50 • Read Mode 1 Excitation Intensity=20 • Volume of addition=12.5 μL • Height=40 μL • Speed=15 μL/second
Raw data was exported and analyzed for maximum signal (RFU) after agonist addition—the average baseline (RFU) in the first 15 seconds per well. Data was plotted in GraphPad Prism to determine EC50 or IC50 of the molecules.

Hepatocytes [4] = experiment: Hepatocytes predicted clearance, mouse
Hepatocytes [5] = experiment: Hepatocytes predicted clearance, rat
[6] = human clinical trials, background statement; cited from earlier work
Hepatocytes [7] = experiment: Hepatocytes predicted clearance, dog
[8] = 100 pmol/mL recombinant human CYP3A4, 37° C., 0-25 min

SMILES	Hepatocytes predicted clearance in human (Hepatocytes [1])	CYP3A4 Clint ([2]; human, recombinant enzyme)	Metabolic Stability in Recombinant Human CYP3A4 + NADPH (% remaining after 25 min) ([2]; human, recombinant enzyme)	Hepatocytes predicted clearance in cyno (Hepatocytes [3])	IC50 (Human TRPV4)	Hepatocytes predicted clearance in mouse (Hepatocytes [4])	Hepatocytes predicted clearance in rat (Hepatocytes [5])	efficacy across several human disease indications [6]	Hepatocytes predicted clearance in dog (Hepatocytes [7])	CYP3A4 Clint [2, 8]	Metabolic Stability in Recombinant Human CYP3A4 + NADPH (% remaining after 25 min) ([2]; recombinant Human CYP3A4 + NADPH)
CC(C)(O)c1cnc(N2C[C@@]3(CCC[C@](C)(Cn4cnc5ccc(C#N)cc54)C3)OC2=O)cn1 [GSK2798745, reference compound]	< 0.17 mL/min/kg	0.18 μL/min/pmol CYP450	69.6%	21.5 mL/min/kg	10 nM	44.3 mL/min/kg	20.7 mL/min/kg	failed to show efficacy	7.17 mL/min/kg		
CC(C)(O)c1cnc(N2C[C@@]3(CCC(F)(F)[C@H](Cn4cnc5ccc(C#N)cc54)C3)OC2=O)cn1 [Example 2, 1-(((5S,7S)-8,8-Difluoro-3-(5-(2-hydroxypropan-2-yl)pyrazin-2-yl)-2-oxo-1-oxa-3-azaspiro[4.5]decan-7-yl)methyl)-1H-benzo[d]imidazole-6-carbonitrile]	< 0.17 mL/min/kg			34.8 mL/min/kg	217 nM	31 mL/min/kg	< 0.17 mL/min/kg		1.3 mL/min/kg	0.08 μL/min/pmol CYP450 and < 0.07 μL/min/pmol CYP450	
CC(C)(O)c1cnc(N2C[C@@]3(CCC(F)(F)[C@](C)(Cn4cnc5ccc(C#N)cc54)C3)OC2=O)cn1 [Example 15, 1-(((5S,7S)-8,8-Difluoro-3-(5-(2-hydroxypropan-2-yl)pyrazin-2-yl)-7-methyl-2-oxo-1-oxa-3-azaspiro[4.5]decan-7-yl)methyl)-1H-benzo[d]imidazole-6-carbonitrile]	3.83 mL/min/kg			28.3 mL/min/kg	8 nM	27.8 mL/min/kg	4.5 mL/min/kg		4.33 mL/min/kg	0.09 μL/min/pmol CYP450 and < 0.07 μL/min/pmol CYP450	91.3%
